From article PMC7732025 (Archives of pharmacal research, 2013)

Tests used:
VERO cells = test: Cytotoxic assay, VERO cells; assay type: cell-based
[1] = Cytotoxic assay, VERO cells; assay type: cell-based; conditions: African green monkey
[2] = Cytotoxic assay, primary human PBM cells; assay type: cell-based; conditions: human, primary human PBM cells
primary human PBM cells = test: Cytotoxic assay, primary human PBM cells; assay type: cell-based; conditions: primary human PBM cells (lymphocytes)
HIV-1 = test: Anti-HIV-1 assay in activated primary human PBM cells; assay type: cell-based, human immunodeficiency virus type 1; conditions: for EC50: read-out: Anti-HIV-1 activity in human PBM cells EC50
in vitro = conditions: human, CEM cells

| Compound | toxicity in VERO cells (in words) (VERO cells) | IC50 at 5 day [1] [µM] | IC50 at 5 day [2] [µM] | toxicity in primary human PBM cells (in words) (primary human PBM cells) | EC50 (HIV-1) [µM] | IC50 at 5 day (in vitro) [µM] | toxicity in CEM cells (in words) (CEM cells) | anti-HIV-1 activity (in words) (HIV-1) |
| --- | --- | --- | --- | --- | --- | --- | --- | --- |
| CC(=NNC(=O)CN1c2c(-c3ccccc3)n[nH]c2-c2ccccc2S1(=O)=O)c1cccs1 [5a, 2-(5,5-Dioxido-3-phenylbenzo[e]pyrazolo[4,3-c][1,2]thiazin-4(1H)-yl)-N′-(1-(thiophen-2-yl)ethylidene)acetohydrazide] | no toxicity | 77.2 | 88 | no toxicity | 11.2 | 23.3 |  |  |
| CC(=NNC(=O)CN1c2c(-c3ccccc3)n[nH]c2-c2ccccc2S1(=O)=O)c1sccc1C [5b, 2-(5,5-Dioxido-3-phenylbenzo[e]pyrazolo[4,3-c][1,2]thiazin-4(1H)-yl)-N′-(1-(3-methylthiophen-2-yl)ethylidene)acetohydrazide] |  | 75.3 | 56.2 |  | 11.6 | 13.1 |  |  |
| CC(=NNC(=O)CN1c2c(-c3ccccc3)n[nH]c2-c2ccccc2S1(=O)=O)c1ccsc1 [5c, 2-(5,5-Dioxido-3-phenylbenzo[e]pyrazolo[4,3-c][1,2]thiazin-4(1H)-yl)-N′-(1-(thiophen-3-yl)ethylidene)acetohydrazide] | no toxicity | 78.7 | 73.2 | no toxicity |  | 10.7 |  |  |
| CC(=NNC(=O)CN1c2c(-c3ccccc3)n[nH]c2-c2ccccc2S1(=O)=O)c1cc(C)sc1C [5d, N′-(1-(2,5-dimethylthiophen-3-yl)ethylidene)-2-(5,5-dioxido-3-phenylbenzo[e]pyrazolo[4,3-c][1,2]thiazin-4(1H)-yl)acetohydrazide] |  | 44.4 | 36.5 |  |  | 17.6 |  |  |
| CC(=NNC(=O)CN1c2c(-c3ccccc3)n[nH]c2-c2ccccc2S1(=O)=O)c1sccc1Cl [5e, N′-(1-(3-chlorothiophen-2-yl)ethylidene)-2-(5,5-dioxido-3-phenylbenzo[e]pyrazolo[4,3-c][1,2]thiazin-4(1H)-yl)acetohydrazide] | non-toxic | > 100 | 69.1 | non-toxic |  | 16.8 |  |  |
| CC(=NNC(=O)CN1c2c(-c3ccccc3)n[nH]c2-c2ccccc2S1(=O)=O)c1sccc1Br [5f, N′-(1-(3-bromothiophen-2-yl)ethylidene)-2-(5,5-dioxido-3-phenylbenzo[e]pyrazolo[4,3-c][1,2]thiazin-4(1H)-yl)acetohydrazide] |  | > 100 | 42.8 |  |  | 19.6 |  |  |
| CC(=NNC(=O)CN1c2c(-c3ccccc3)n[nH]c2-c2ccccc2S1(=O)=O)c1ccc(Cl)s1 [5g, N′-(1-(5-chlorothiophen-2-yl)ethylidene)-2-(5,5-dioxido-3-phenylbenzo[e]pyrazolo[4,3-c][1,2]thiazin-4(1H)-yl)acetohydrazide] |  | 57.4 | 13.9 |  |  | 8.4 |  |  |
| CC(=NNC(=O)CN1c2c(-c3ccccc3)n[nH]c2-c2ccccc2S1(=O)=O)c1sc(N)nc1C [5h, N′-(1-(2-amino-4-methylthiazol-5-yl)ethylidene)-2-(5,5-dioxido-3-phenylbenzo[e]pyrazolo[4,3-c][1,2]thiazin-4(1H)-yl)acetohydrazide] | no toxicity | > 100 | > 100 | no toxicity |  | > 100 | no toxicity |  |
| CC(=NNC(=O)CN1c2c(-c3ccccc3)n[nH]c2-c2ccccc2S1(=O)=O)c1cc(Cl)sc1Cl [5i, N′-(1-(2,5-dichlorothiophen-3-yl)ethylidene)-2-(5,5-dioxido-3-phenylbenzo[e]pyrazolo[4,3-c][1,2]thiazin-4(1H)-yl)acetohydrazide] | toxic | 38.8 | 12.2 | toxic |  | 14.4 | toxic |  |
| CC(=NNC(=O)CN1c2c(-c3ccccc3)n[nH]c2-c2ccccc2S1(=O)=O)c1cc(C)cs1 [5j, 2-(5,5-Dioxido-3-phenylbenzo[e]pyrazolo[4,3-c][1,2]thiazin-4(1H)-yl)-N′-(1-(4-methylthiophen-2-yl)ethylidene)acetohydrazide] |  | 6 | > 100 |  | 13.3 | 18.3 |  |  |
| CC(=NNC(=O)CN1c2c(-c3ccccc3)n[nH]c2-c2ccccc2S1(=O)=O)c1cc2ccccc2oc1=O [5k, 2-(5,5-Dioxido-3-phenylbenzo[e]pyrazolo[4,3-c][1,2]thiazin-4(1H)-yl)-N′-(1-(2-oxo-2H-chromen-3-yl)ethylidene)acetohydrazide] | non-toxic | > 100 | 82.7 | non-toxic |  | 27.8 |  |  |
| CC(=NNC(=O)CN1c2c(-c3ccccc3)n[nH]c2-c2ccccc2S1(=O)=O)c1ccc2ccccc2c1 [5l, 2-(5,5-Dioxido-3-phenylbenzo[e]pyrazolo[4,3-c][1,2]thiazin-4(1H)-yl)-N′-(1-(naphthalen-2-yl)ethylidene)acetohydrazide] |  | < 1 | 12.2 |  |  | 24.2 |  |  |
| CC(=NNC(=O)CN1c2c(-c3ccccc3)n[nH]c2-c2ccccc2S1(=O)=O)c1ccc(C)s1 [5m, 2-(5,5-Dioxido-3-phenylbenzo[e]pyrazolo[4,3-c][1,2]thiazin-4(1H)-yl)-N′-(1-(5-methylthiophen-2-yl)ethylidene)acetohydrazide] |  | 30.6 | 62.3 |  |  | 13.8 |  |  |
| CC(=NNC(=O)CN1c2c(-c3ccccc3)n[nH]c2-c2ccccc2S1(=O)=O)c1cc2ccccc2o1 [5n, N′-(1-(benzofuran-2-yl)ethylidene)-2-(5,5-dioxido-3-phenylbenzo[e]pyrazolo[4,3-c][1,2]thiazin-4(1H)-yl)acetohydrazide] |  | 23 | > 100 |  |  | 22.4 |  | inactive |
| CC(=NNC(=O)CN1c2c(-c3ccccc3)n[nH]c2-c2ccccc2S1(=O)=O)c1ccc[nH]1 [5o, N′-(1-(1H-pyrrol-2-yl)ethylidene)-2-(5,5-dioxido-3-phenylbenzo[e]pyrazolo[4,3-c][1,2]thiazin-4(1H)-yl)acetohydrazide] |  | 22.3 | 41.4 |  |  | 20 |  |  |
| CC(=NNC(=O)CN1c2c(-c3ccccc3)n[nH]c2-c2ccccc2S1(=O)=O)c1ccc(Br)s1 [5p, N′-(1-(5-bromothiophen-2-yl)ethylidene)-2-(5,5-dioxido-3-phenylbenzo[e]pyrazolo[4,3-c][1,2]thiazin-4(1H)-yl)acetohydrazide] |  | 18.1 | 10.5 |  |  | < 1 |  |  |
| CC(=NNC(=O)CN1c2c(-c3ccccc3)n[nH]c2-c2ccccc2S1(=O)=O)c1ccc2c(c1)OCCO2 [5q, N′-(1-(2,3-dihydrobenzo[b][1,4]dioxin-6-yl)ethylidene)-2-(5,5-dioxido-3-phenylbenzo[e]pyrazolo[4,3-c][1,2]thiazin-4(1H)-yl)acetohydrazide] | non-toxic | > 100 | 67.1 | non-toxic |  | 23.9 |  |  |
| CC(=NNC(=O)CN1c2c(-c3ccccc3)n[nH]c2-c2ccccc2S1(=O)=O)c1ccc([N+](=O)[O-])s1 [5r, 2-(5,5-Dioxido-3-phenylbenzo[e]pyrazolo[4,3-c][1,2]thiazin-4(1H)-yl)-N′-(1-(5-nitrothiophen-2-yl)ethylidene)acetohydrazide] |  | 43.6 | 85 |  |  | 5 |  |  |
| CC(=NNC(=O)CN1c2c(-c3ccccc3)n[nH]c2-c2ccccc2S1(=O)=O)c1ccc(C)o1 [5s, 2-(5,5-Dioxido-3-phenylbenzo[e]pyrazolo[4,3-c][1,2]thiazin-4(1H)-yl)-N′-(1-(5-methylfuran-2-yl)ethylidene)acetohydrazide] |  | > 100 | 53.8 |  |  | 15.4 |  | inactive |
| CC(=NNC(=O)CN1c2c(-c3ccccc3)n[nH]c2-c2ccccc2S1(=O)=O)c1cc(C)oc1C [5t, N′-(1-(2,5-dimethylfuran-3-yl)ethylidene)-2-(5,5-dioxido-3-phenylbenzo[e]pyrazolo[4,3-c][1,2]thiazin-4(1H)-yl)acetohydrazide] |  | 41.4 | 17.3 |  |  | 9.9 |  |  |
| CC(=NNC(=O)CN1c2c(-c3ccccc3)n[nH]c2-c2ccccc2S1(=O)=O)c1nccs1 [5u, 2-(5,5-Dioxido-3-phenylbenzo[e]pyrazolo[4,3-c][1,2]thiazin-4(1H)-yl)-N′-(1-(thiazol-2-yl)ethylidene)acetohydrazide] |  | 43.1 | 15.7 |  |  | 8.2 |  |  |
| CC(=NNC(=O)CN1c2c(-c3ccccc3)n[nH]c2-c2ccccc2S1(=O)=O)c1ccncc1 [5v, 2-(5,5-Dioxido-3-phenylbenzo[e]pyrazolo[4,3-c][1,2]thiazin-4(1H)-yl)-N′-(1-(pyridin-4-yl)ethylidene)acetohydrazide] |  | 84.1 | 75.6 |  |  | 34.5 |  | inactive |
| O=C(CN1c2c(-c3ccccc3)n[nH]c2-c2ccccc2S1(=O)=O)NN=Cc1cccs1 [5w, 2-(5,5-Dioxido-3-phenylbenzo[e]pyrazolo[4,3-c][1,2]thiazin-4(1H)-yl)-N′-(thiophen-2-ylmethylene)acetohydrazide] | no toxicity | 41.8 | 30.6 | no toxicity |  | 13.9 |  |  |
